Test results: the supplement of paper PMC10733146

Key:
Assay in all cases: viability relative to DMSO control (fraction); higher = less drug effect (more viable cells)
Details in all cases: 48 h
[1] = system: primary AML patient cells (S009)
Procedure, shortened: (§1)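 Compounds were pre-plated at five concentrations, one well each, in 384-well plates, and primary mononuclear tumour cells were plated on them at 4 × 10^4 cells per well. The cells, fresh or cryopreserved, had been Ficoll-isolated from blood or bone marrow or taken from processed lymph node. After 48 h at 37 °C and 5% CO2 in RPMI-1640 with penicillin/streptomycin, L-glutamine and human serum, viability was read as CellTiter-Glo luminescence relative to the median of 16 inner DMSO wells.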

[2] = system: primary B-PLL patient cells (S016)
Procedure, shortened: as §1

[3] = system: primary MCL patient cells (S041)
Procedure, shortened: as §1

[4] = system: primary ALL patient cells (S088)
Procedure, shortened: as §1

[5] = system: primary AML patient cells (S079)
Procedure, shortened: as §1

[6] = system: primary AML patient cells (S055)
Procedure, shortened: as §1

[7] = system: primary AML patient cells (S056)
Procedure, shortened: as §1

[8] = system: primary MCL patient cells (S063)
Procedure, shortened: as §1

[9] = system: primary DLBCL patient cells (S082)
Procedure, shortened: as §1

[10] = system: primary CLL patient cells (S031)
Procedure, shortened: as §1

[11] = system: primary FL patient cells (S087)
Procedure, shortened: as §1

[12] = system: primary FL patient cells (S022)
Procedure, shortened: as §1

[13] = system: primary BL patient cells (S005)
Procedure, shortened: as §1

[14] = system: primary T-PLL patient cells (S008)
Procedure, shortened: as §1

[15] = system: primary AML patient cells (S072)
Procedure, shortened: as §1

[16] = system: primary AML patient cells (S060)
Procedure, shortened: as §1

[17] = system: primary AML patient cells (S071)
Procedure, shortened: as §1

[18] = system: primary MCL patient cells (S053)
Procedure, shortened: as §1

[19] = system: primary ALL patient cells (S048)
Procedure, shortened: as §1

[20] = system: primary MCL patient cells (S068)
Procedure, shortened: as §1

`O=C(c1cc(Cc2n[nH]c(=O)c3ccccc23)ccc1F)N1CCN(C(=O)C2CC2)CC1` [Olaparib] gave a viability ([1]; 0.024 µM) of 0.977, a viability ([1]; 0.12 µM) of 0.987 and a viability ([1]; 0.6 µM) of 1.02. For the same compound, the viability ([1]; 3 µM) was 0.93, the viability ([1]; 15 µM) was 0.958 and the viability ([2]; 0.024 µM) was 0.86. It also gave a viability ([2]; 0.12 µM) of 0.871, a viability ([2]; 0.6 µM) of 0.872 and a viability ([2]; 3 µM) of 0.8. For the same compound, the viability ([2]; 15 µM) was 0.722, the viability ([3]; 0.024 µM) was 0.845 and the viability ([3]; 0.12 µM) was 0.889. For the same compound, the viability ([3]; 0.6 µM) was 0.93, the viability ([3]; 3 µM) was 0.933 and the viability ([3]; 15 µM) was 0.895. The viability ([4]; 0.024 µM) was 0.579, the viability ([4]; 0.12 µM) was 0.775 and the viability ([4]; 0.6 µM) was 0.788. It also gave a viability ([4]; 3 µM) of 0.821, a viability ([4]; 15 µM) of 0.787 and a viability ([5]; 0.024 µM) of 0.828. For the same compound, the viability ([5]; 0.12 µM) was 0.844, the viability ([5]; 0.6 µM) was 0.898 and the viability ([5]; 3 µM) was 0.893. For the same compound, the viability ([5]; 15 µM) was 0.815, the viability ([6]; 0.024 µM) was 0.937 and the viability ([6]; 0.12 µM) was 0.899. It also gave a viability ([6]; 0.6 µM) of 0.91, a viability ([6]; 3 µM) of 0.965 and a viability ([6]; 15 µM) of 0.919. The viability ([7]; 0.024 µM) was 1.05, the viability ([7]; 0.12 µM) was 0.922 and the viability ([7]; 0.6 µM) was 1.05. For the same compound, the viability ([7]; 3 µM) was 1.15, the viability ([7]; 15 µM) was 1.17 and the viability ([8]; 0.024 µM) was 0.872. It also gave a viability ([8]; 0.12 µM) of 0.936, a viability ([8]; 0.6 µM) of 0.893 and a viability ([8]; 3 µM) of 0.933. For the same compound, the viability ([8]; 15 µM) was 0.886, the viability ([9]; 0.024 µM) was 0.835 and the viability ([9]; 0.12 µM) was 0.887. The viability ([9]; 0.6 µM) was 0.878, the viability ([9]; 3 µM) was 0.817 and the viability ([9]; 15 µM) was 0.718. It also gave a viability ([10]; 0.024 µM) of 0.814, a viability ([10]; 0.12 µM) of 0.89 and a viability ([10]; 0.6 µM) of 0.913. For the same compound, the viability ([10]; 3 µM) was 0.829, the viability ([10]; 15 µM) was 0.854 and the viability ([11]; 0.024 µM) was 0.882. It also gave a viability ([11]; 0.12 µM) of 0.916, a viability ([11]; 0.6 µM) of 0.911 and a viability ([11]; 3 µM) of 0.912. It also gave a viability ([11]; 15 µM) of 0.845, a viability ([12]; 0.024 µM) of 0.828 and a viability ([12]; 0.12 µM) of 1.07. For the same compound, the viability ([12]; 0.6 µM) was 0.937, the viability ([12]; 3 µM) was 0.866 and the viability ([12]; 15 µM) was 0.875. The viability ([13]; 0.024 µM) was 0.938, the viability ([13]; 0.12 µM) was 0.985 and the viability ([13]; 0.6 µM) was 0.977. For the same compound, the viability ([13]; 3 µM) was 0.904, the viability ([13]; 15 µM) was 0.878 and the viability ([14]; 0.024 µM) was 0.945. The viability ([14]; 0.12 µM) was 0.962, the viability ([14]; 0.6 µM) was 0.957 and the viability ([14]; 3 µM) was 0.978. For the same compound, the viability ([14]; 15 µM) was 0.94, the viability ([15]; 0.024 µM) was 0.829 and the viability ([15]; 0.12 µM) was 0.891. The viability ([15]; 0.6 µM) was 0.914, the viability ([15]; 3 µM) was 0.885 and the viability ([15]; 15 µM) was 0.852. It also gave a viability ([16]; 0.024 µM) of 0.947, a viability ([16]; 0.12 µM) of 0.926 and a viability ([16]; 0.6 µM) of 0.979. For the same compound, the viability ([16]; 3 µM) was 0.973, the viability ([16]; 15 µM) was 0.987 and the viability ([17]; 0.024 µM) was 0.974. For the same compound, the viability ([17]; 0.12 µM) was 1.01, the viability ([17]; 0.6 µM) was 1.02 and the viability ([17]; 3 µM) was 0.917. It also gave a viability ([17]; 15 µM) of 0.806, a viability ([18]; 0.024 µM) of 0.801 and a viability ([18]; 0.12 µM) of 0.863. For the same compound, the viability ([18]; 0.6 µM) was 0.834, the viability ([18]; 3 µM) was 0.685 and the viability ([18]; 15 µM) was 0.643. The viability ([19]; 0.024 µM) was 0.685, the viability ([19]; 0.12 µM) was 0.799 and the viability ([19]; 0.6 µM) was 0.786. It also gave a viability ([19]; 3 µM) of 0.771, a viability ([19]; 15 µM) of 0.7 and a viability ([20]; 0.024 µM) of 0.896. The viability ([20]; 0.12 µM) was 0.838, the viability ([20]; 0.6 µM) was 0.714 and the viability ([20]; 3 µM) was 0.78. The viability ([20]; 15 µM) was 0.585.
`CC(C)c1cc(C(=O)N2Cc3ccc(CN4CCN(C)CC4)cc3C2)c(O)cc1O` [Onalespib] gave a viability ([1]; 0.0032 µM) of 1.15, a viability ([1]; 0.016 µM) of 0.852 and a viability ([1]; 0.08 µM) of 0.686. For the same compound, the viability ([1]; 0.4 µM) was 0.568, the viability ([1]; 2 µM) was 0.648 and the viability ([2]; 0.0032 µM) was 0.875. The viability ([2]; 0.016 µM) was 1.35, the viability ([2]; 0.08 µM) was 0.668 and the viability ([2]; 0.4 µM) was 0.69. The viability ([2]; 2 µM) was 0.629, the viability ([3]; 0.0032 µM) was 0.95 and the viability ([3]; 0.016 µM) was 1.05. The viability ([3]; 0.08 µM) was 0.724, the viability ([3]; 0.4 µM) was 0.53 and the viability ([3]; 2 µM) was 0.445. It also gave a viability ([4]; 0.0032 µM) of 0.659, a viability ([4]; 0.016 µM) of 0.582 and a viability ([4]; 0.08 µM) of 0.255. It also gave a viability ([4]; 0.4 µM) of 0.273, a viability ([4]; 2 µM) of 0.253 and a viability ([5]; 0.0032 µM) of 0.872. The viability ([5]; 0.016 µM) was 0.888, the viability ([5]; 0.08 µM) was 0.555 and the viability ([5]; 0.4 µM) was 0.381. For the same compound, the viability ([5]; 2 µM) was 0.322, the viability ([6]; 0.0032 µM) was 0.96 and the viability ([6]; 0.016 µM) was 1.01. The viability ([6]; 0.08 µM) was 0.566, the viability ([6]; 0.4 µM) was 0.434 and the viability ([6]; 2 µM) was 0.389. The viability ([7]; 0.0032 µM) was 0.743, the viability ([7]; 0.016 µM) was 0.29 and the viability ([7]; 0.08 µM) was 0.142. The viability ([7]; 0.4 µM) was 0.164, the viability ([7]; 2 µM) was 0.174 and the viability ([8]; 0.0032 µM) was 0.9. For the same compound, the viability ([8]; 0.016 µM) was 1.27, the viability ([8]; 0.08 µM) was 0.447 and the viability ([8]; 0.4 µM) was 0.1. For the same compound, the viability ([8]; 2 µM) was 0.0867, the viability ([9]; 0.0032 µM) was 0.967 and the viability ([9]; 0.016 µM) was 1.24. It also gave a viability ([9]; 0.08 µM) of 1.03, a viability ([9]; 0.4 µM) of 1.22 and a viability ([9]; 2 µM) of 0.961. It also gave a viability ([10]; 0.0032 µM) of 0.896, a viability ([10]; 0.016 µM) of 0.929 and a viability ([10]; 0.08 µM) of 0.432. The viability ([10]; 0.4 µM) was 0.235, the viability ([10]; 2 µM) was 0.246 and the viability ([11]; 0.0032 µM) was 0.962. For the same compound, the viability ([11]; 0.016 µM) was 1.02, the viability ([11]; 0.08 µM) was 0.853 and the viability ([11]; 0.4 µM) was 0.84. For the same compound, the viability ([11]; 2 µM) was 0.871, the viability ([12]; 0.0032 µM) was 0.868 and the viability ([12]; 0.016 µM) was 0.943. The viability ([12]; 0.08 µM) was 0.705, the viability ([12]; 0.4 µM) was 0.781 and the viability ([12]; 2 µM) was 0.757. For the same compound, the viability ([13]; 0.0032 µM) was 1.56, the viability ([13]; 0.016 µM) was 1.32 and the viability ([13]; 0.08 µM) was 1.42. It also gave a viability ([13]; 0.4 µM) of 0.756, a viability ([13]; 2 µM) of 0.792 and a viability ([14]; 0.0032 µM) of 1.1. For the same compound, the viability ([14]; 0.016 µM) was 1.06, the viability ([14]; 0.08 µM) was 1.06 and the viability ([14]; 0.4 µM) was 0.989. For the same compound, the viability ([14]; 2 µM) was 0.993, the viability ([15]; 0.0032 µM) was 0.919 and the viability ([15]; 0.016 µM) was 1.02. The viability ([15]; 0.08 µM) was 0.486, the viability ([15]; 0.4 µM) was 0.422 and the viability ([15]; 2 µM) was 0.38. It also gave a viability ([16]; 0.0032 µM) of 0.967, a viability ([16]; 0.016 µM) of 1.15 and a viability ([16]; 0.08 µM) of 0.61. It also gave a viability ([16]; 0.4 µM) of 0.169, a viability ([16]; 2 µM) of 0.109 and a viability ([17]; 0.0032 µM) of 0.847. It also gave a viability ([17]; 0.016 µM) of 0.379, a viability ([17]; 0.08 µM) of 0.149 and a viability ([17]; 0.4 µM) of 0.169. For the same compound, the viability ([17]; 2 µM) was 0.168, the viability ([18]; 0.0032 µM) was 0.837 and the viability ([18]; 0.016 µM) was 1.12. The viability ([18]; 0.08 µM) was 0.356, the viability ([18]; 0.4 µM) was 0.345 and the viability ([18]; 2 µM) was 0.306. The viability ([19]; 0.0032 µM) was 0.877, the viability ([19]; 0.016 µM) was 0.847 and the viability ([19]; 0.08 µM) was 0.477. The viability ([19]; 0.4 µM) was 0.574, the viability ([19]; 2 µM) was 0.432 and the viability ([20]; 0.0032 µM) was 1.04. For the same compound, the viability ([20]; 0.016 µM) was 1.44, the viability ([20]; 0.08 µM) was 0.814 and the viability ([20]; 0.4 µM) was 0.497. The viability ([20]; 2 µM) was 0.419.
